Measurements from PubChem BioAssay (NCI).
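Each compound was tested at five concentrations against cells in 96-well plates for 48 hours. GI50 = concentration required for 50% inhibition of growth. Definition used: TGI = concentration required for complete inhibition of growth.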

Key:
Assay in all cases: NCI anticancer screen, dose series, 48 h
786-0 renal = test system: 786-0 renal
A498 renal = test system: A498 renal
A549 NSCLC = test system: A549 NSCLC
ACHN renal = test system: ACHN renal
BT-549 breast = test system: BT-549 breast
CAKI-1 renal = test system: CAKI-1 renal
CCRF-CEM leukemia = test system: CCRF-CEM leukemia
COLO 205 colon = test system: COLO 205 colon
DU-145 prostate = test system: DU-145 prostate
EKVX NSCLC = test system: EKVX NSCLC
HCC-2998 colon = test system: HCC-2998 colon
HCT-116 colon = test system: HCT-116 colon
HCT-15 colon = test system: HCT-15 colon
HL-60(TB) leukemia = test system: HL-60(TB) leukemia
HOP-62 NSCLC = test system: HOP-62 NSCLC
HOP-92 NSCLC = test system: HOP-92 NSCLC
HS 578T breast = test system: HS 578T breast
HT29 colon = test system: HT29 colon
IGROV1 ovarian = test system: IGROV1 ovarian
K-562 leukemia = test system: K-562 leukemia
KM12 colon = test system: KM12 colon
LOX IMVI melanoma = test system: LOX IMVI melanoma
M14 melanoma = test system: M14 melanoma
MALME-3M melanoma = test system: MALME-3M melanoma
MCF7 breast = test system: MCF7 breast
MDA-MB-231 breast = test system: MDA-MB-231 breast
MDA-MB-435 = test system: MDA-MB-435
MOLT-4 leukemia = test system: MOLT-4 leukemia
NCI-H226 lung = test system: NCI-H226 lung
NCI-H23 lung = test system: NCI-H23 lung
NCI-H460 lung = test system: NCI-H460 lung
NCI-H522 lung = test system: NCI-H522 lung
NCI/ADR-RES ovarian = test system: NCI/ADR-RES ovarian
OVCAR-3 ovarian = test system: OVCAR-3 ovarian
OVCAR-4 ovarian = test system: OVCAR-4 ovarian
OVCAR-5 ovarian = test system: OVCAR-5 ovarian
OVCAR-8 ovarian = test system: OVCAR-8 ovarian
PC-3 prostate = test system: PC-3 prostate
RPMI-8226 leukemia = test system: RPMI-8226 leukemia
RXF 393 renal = test system: RXF 393 renal
SF-268 CNS = test system: SF-268 CNS
SF-295 CNS = test system: SF-295 CNS
SF-539 CNS = test system: SF-539 CNS
SK-MEL-2 melanoma = test system: SK-MEL-2 melanoma
SK-MEL-28 melanoma = test system: SK-MEL-28 melanoma
SK-MEL-5 melanoma = test system: SK-MEL-5 melanoma
SK-OV-3 ovarian = test system: SK-OV-3 ovarian
SN12C renal = test system: SN12C renal
SNB-19 CNS = test system: SNB-19 CNS
SNB-75 CNS = test system: SNB-75 CNS
SR leukemia = test system: SR leukemia
SW-620 colon = test system: SW-620 colon
T-47D breast = test system: T-47D breast
TK-10 renal = test system: TK-10 renal
U251 CNS = test system: U251 CNS
UACC-257 melanoma = test system: UACC-257 melanoma
UACC-62 melanoma = test system: UACC-62 melanoma
UO-31 renal = test system: UO-31 renal

CC(=O)OC1Oc2ccccc2-c2oc(=O)c(-c3ccc(F)cc3)cc21 (stereo unspecified)
GI50 (786-0 renal): 17.7 µM | TGI (786-0 renal): 77.3 µM | GI50 (A498 renal): 28.3 µM | TGI (A498 renal): 71.9 µM | GI50 (A549 NSCLC): 38.8 µM | TGI (A549 NSCLC): > 100 µM | GI50 (ACHN renal): 31.8 µM | TGI (ACHN renal): > 100 µM | GI50 (BT-549 breast): 23.8 µM | TGI (BT-549 breast): 69.1 µM | GI50 (CAKI-1 renal): 30.9 µM | TGI (CAKI-1 renal): > 100 µM | GI50 (CCRF-CEM leukemia): 23.4 µM | TGI (CCRF-CEM leukemia): 55.2 µM | GI50 (COLO 205 colon): 36.3 µM | TGI (COLO 205 colon): > 100 µM | GI50 (DU-145 prostate): 29 µM | TGI (DU-145 prostate): > 100 µM | GI50 (EKVX NSCLC): 9.46 µM | TGI (EKVX NSCLC): 83.3 µM | GI50 (HCC-2998 colon): 24.8 µM | TGI (HCC-2998 colon): > 100 µM | GI50 (HCT-116 colon): 31.5 µM | TGI (HCT-116 colon): > 100 µM | GI50 (HCT-15 colon): 20.9 µM | TGI (HCT-15 colon): > 100 µM | GI50 (HL-60(TB) leukemia): 24.9 µM | TGI (HL-60(TB) leukemia): > 100 µM | GI50 (HOP-62 NSCLC): 8.79 µM | TGI (HOP-62 NSCLC): 40.2 µM | GI50 (HOP-92 NSCLC): 29.6 µM | TGI (HOP-92 NSCLC): 96.9 µM | GI50 (HS 578T breast): 10.4 µM | TGI (HS 578T breast): 74.7 µM | GI50 (HT29 colon): 21.6 µM | TGI (HT29 colon): > 100 µM | GI50 (IGROV1 ovarian): 33.5 µM | TGI (IGROV1 ovarian): > 100 µM | GI50 (K-562 leukemia): 17.1 µM | TGI (K-562 leukemia): > 100 µM | GI50 (KM12 colon): 12.2 µM | TGI (KM12 colon): 43 µM | GI50 (LOX IMVI melanoma): 16.6 µM | TGI (LOX IMVI melanoma): 73.2 µM | GI50 (M14 melanoma): 25.3 µM | TGI (M14 melanoma): 95.8 µM | GI50 (MALME-3M melanoma): 21.9 µM | TGI (MALME-3M melanoma): 70.7 µM | GI50 (MCF7 breast): 6.01 µM | TGI (MCF7 breast): 40 µM | GI50 (MDA-MB-231 breast): 33.9 µM | TGI (MDA-MB-231 breast): > 100 µM | GI50 (MDA-MB-435): 4.33 µM | TGI (MDA-MB-435): 40.3 µM | GI50 (MOLT-4 leukemia): 14 µM | TGI (MOLT-4 leukemia): 31.1 µM | GI50 (NCI-H226 lung): 29.7 µM | TGI (NCI-H226 lung): 78.1 µM | GI50 (NCI-H23 lung): 40.7 µM | TGI (NCI-H23 lung): > 100 µM | GI50 (NCI-H460 lung): 25.2 µM | TGI (NCI-H460 lung): > 100 µM | GI50 (NCI-H522 lung): 20.2 µM | TGI (NCI-H522 lung): 78.3 µM | GI50 (NCI/ADR-RES ovarian): 60 µM | TGI (NCI/ADR-RES ovarian): > 100 µM | GI50 (OVCAR-3 ovarian): 23.2 µM | TGI (OVCAR-3 ovarian): 71.7 µM | GI50 (OVCAR-4 ovarian): 28.2 µM | TGI (OVCAR-4 ovarian): > 100 µM | GI50 (OVCAR-5 ovarian): 66.5 µM | TGI (OVCAR-5 ovarian): > 100 µM | GI50 (OVCAR-8 ovarian): 36.3 µM | TGI (OVCAR-8 ovarian): > 100 µM | GI50 (PC-3 prostate): 32.7 µM | TGI (PC-3 prostate): > 100 µM | GI50 (RPMI-8226 leukemia): 24.6 µM | TGI (RPMI-8226 leukemia): 60.3 µM | GI50 (RXF 393 renal): 26.8 µM | TGI (RXF 393 renal): 99.7 µM | GI50 (SF-268 CNS): 29.6 µM | TGI (SF-268 CNS): > 100 µM | GI50 (SF-295 CNS): 23.3 µM | TGI (SF-295 CNS): > 100 µM | GI50 (SF-539 CNS): 24.6 µM | TGI (SF-539 CNS): 74.6 µM | GI50 (SK-MEL-2 melanoma): 39.5 µM | TGI (SK-MEL-2 melanoma): > 100 µM | GI50 (SK-MEL-28 melanoma): 32.6 µM | TGI (SK-MEL-28 melanoma): > 100 µM | GI50 (SK-MEL-5 melanoma): 14.9 µM | TGI (SK-MEL-5 melanoma): 31 µM | GI50 (SK-OV-3 ovarian): 35 µM | TGI (SK-OV-3 ovarian): > 100 µM | GI50 (SN12C renal): 35.1 µM | TGI (SN12C renal): > 100 µM | GI50 (SNB-19 CNS): 30.6 µM | TGI (SNB-19 CNS): > 100 µM | GI50 (SNB-75 CNS): 5.59 µM | TGI (SNB-75 CNS): 41.7 µM | GI50 (SR leukemia): 2.86 µM | TGI (SR leukemia): 9.08 µM | GI50 (SW-620 colon): 19 µM | TGI (SW-620 colon): > 100 µM | GI50 (T-47D breast): 22.5 µM | TGI (T-47D breast): 93.3 µM | GI50 (TK-10 renal): 26.7 µM | TGI (TK-10 renal): 83.8 µM | GI50 (U251 CNS): 16.8 µM | TGI (U251 CNS): > 100 µM | GI50 (UACC-257 melanoma): 35.5 µM | TGI (UACC-257 melanoma): > 100 µM | GI50 (UACC-62 melanoma): 10.8 µM | TGI (UACC-62 melanoma): 33.6 µM | GI50 (UO-31 renal): 32.8 µM | TGI (UO-31 renal): > 100 µM
